# Patent US10081624B2, “Heterocyclic compound” (Takeda Pharmaceutical Company Limited, priority 2014, dated 2018)
# Columns and labels:
# [1] = target: T1, HDAC6 enzyme (Homo sapiens, UniProt Q9UBN7); assay: HDAC6 enzyme inhibitory assay (HDAC-Glo I/II Assay kit); assay type: biochemical; settings: 1 μM test compound; for inhibition at 1 µM: read-out: HDAC6 inhibitory rate (%) (1 μM)
# T1 construct: prepared by transducing full length HDAC1 and HDAC6 genes into Sf-9 insect cells; GST; purchased SignalChem; host or cells: Sf-9 insect cells
# T1 sequence (Q9UBN7 1-1215): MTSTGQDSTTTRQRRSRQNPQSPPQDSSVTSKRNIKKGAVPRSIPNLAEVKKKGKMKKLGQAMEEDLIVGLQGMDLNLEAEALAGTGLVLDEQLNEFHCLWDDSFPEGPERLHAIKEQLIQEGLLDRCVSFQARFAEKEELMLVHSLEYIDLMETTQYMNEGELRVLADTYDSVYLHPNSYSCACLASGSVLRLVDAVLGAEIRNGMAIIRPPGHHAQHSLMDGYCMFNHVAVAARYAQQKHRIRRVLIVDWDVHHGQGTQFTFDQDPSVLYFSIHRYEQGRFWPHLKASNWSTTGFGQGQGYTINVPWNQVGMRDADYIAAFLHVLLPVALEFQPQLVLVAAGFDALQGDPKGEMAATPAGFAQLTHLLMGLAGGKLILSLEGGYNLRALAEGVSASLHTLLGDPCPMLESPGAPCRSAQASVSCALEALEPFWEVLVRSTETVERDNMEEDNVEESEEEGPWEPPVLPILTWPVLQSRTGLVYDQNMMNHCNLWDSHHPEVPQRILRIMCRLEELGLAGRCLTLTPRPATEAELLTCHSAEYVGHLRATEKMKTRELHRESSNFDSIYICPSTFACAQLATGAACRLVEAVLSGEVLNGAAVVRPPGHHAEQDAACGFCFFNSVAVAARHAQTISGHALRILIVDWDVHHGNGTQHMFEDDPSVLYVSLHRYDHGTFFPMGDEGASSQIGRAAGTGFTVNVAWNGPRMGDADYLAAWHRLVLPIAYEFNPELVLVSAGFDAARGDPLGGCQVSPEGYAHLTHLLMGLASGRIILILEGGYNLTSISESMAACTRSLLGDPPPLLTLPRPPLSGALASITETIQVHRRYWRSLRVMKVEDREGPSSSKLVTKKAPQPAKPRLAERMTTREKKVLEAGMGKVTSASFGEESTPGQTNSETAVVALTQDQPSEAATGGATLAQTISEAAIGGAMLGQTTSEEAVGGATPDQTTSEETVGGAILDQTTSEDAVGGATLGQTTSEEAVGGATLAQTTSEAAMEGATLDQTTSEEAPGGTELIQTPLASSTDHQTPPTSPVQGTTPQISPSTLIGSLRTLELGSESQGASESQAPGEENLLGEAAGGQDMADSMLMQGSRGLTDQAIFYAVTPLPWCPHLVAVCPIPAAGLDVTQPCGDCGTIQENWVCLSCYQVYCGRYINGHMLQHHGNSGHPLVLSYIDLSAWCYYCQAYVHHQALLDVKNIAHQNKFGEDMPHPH
# Method in brief: (§1)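 Luminescent HDAC-Glo I/II read-out after 20 min room-temperature reaction with substrate-developer, following a 60 min room-temperature enzyme–compound preincubation. Enzymes: full-length HDAC1 or HDAC6 from Sf-9 cells, GST-purified; buffer pH 7.5 Tris with NaCl, glutathione, 0.01% Tween-20. No-enzyme wells defined 100% inhibition.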
# [2] = target: T2, HDAC1 enzyme (Homo sapiens, UniProt Q13547); assay: HDAC1 enzyme inhibitory assay (HDAC-Glo I/II Assay kit); assay type: biochemical; settings: 1 μM test compound; for inhibition at 1 µM: read-out: HDAC1 inhibitory rate (%) (1 μM)
# T2 construct: prepared by transducing full length HDAC1 and HDAC6 genes into Sf-9 insect cells; GST; purchased SignalChem; host or cells: Sf-9 insect cells
# Method in brief: as §1
# T2 sequence (Q13547 whole entry): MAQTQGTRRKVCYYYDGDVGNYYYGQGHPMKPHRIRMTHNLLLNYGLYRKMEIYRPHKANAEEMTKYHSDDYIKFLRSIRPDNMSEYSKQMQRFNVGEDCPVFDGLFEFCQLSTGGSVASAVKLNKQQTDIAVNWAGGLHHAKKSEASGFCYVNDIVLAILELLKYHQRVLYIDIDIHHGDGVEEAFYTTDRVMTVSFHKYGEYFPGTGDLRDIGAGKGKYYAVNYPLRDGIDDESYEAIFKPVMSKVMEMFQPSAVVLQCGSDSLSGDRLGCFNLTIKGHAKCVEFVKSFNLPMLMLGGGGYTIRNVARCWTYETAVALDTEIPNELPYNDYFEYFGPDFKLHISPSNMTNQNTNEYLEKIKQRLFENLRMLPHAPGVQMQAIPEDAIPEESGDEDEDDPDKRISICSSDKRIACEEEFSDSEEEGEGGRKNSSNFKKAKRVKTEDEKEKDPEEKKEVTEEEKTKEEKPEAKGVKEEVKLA
SMILES,HDAC6 inhibitory rate (%) (1 μM) ([1]; 1 µM),HDAC1 inhibitory rate (%) (1 μM) [2],inhibition at 1 µM [1],inhibition at 1 µM [2]
"O=C(NC[C@H]1COCCN1C(=O)c1ccccc1N1CCOCC1)c1ccc(-c2noc(C(F)(F)F)n2)cc1 [Example 46, N-(((3S)-4-(2-(morpholin-4-yl)benzoyl)morpholin-3-yl)methyl)-4-(5-(trifluoromethyl)-1,2,4-oxadiazol-3-yl)benzamide]",95%,12%,–,–
"CN(CC1COCCN1C(=O)c1ccccc1)C(=O)c1ccc(-c2noc(C(F)(F)F)n2)cc1 (stereo not shown) [Example 159, N-((4-benzoylmorpholin-3-yl)methyl)-N-methyl-4-(5-(trifluoromethyl)-1,2,4-oxadiazol-3-yl)benzamide]",–,–,42%,11%
"O=C(NC[C@@H]1COCCN1C(=O)C1CCCC1)c1ccc(-c2noc(C(F)(F)F)n2)cc1 [Example 149, N-(((3R)-4-(cyclopentylcarbonyl)morpholin-3-yl)methyl)-4-(5-(trifluoromethyl)-1,2,4-oxadiazol-3-yl)benzamide]",–,–,96%,12%
"O=C(NCC1COCCN1C(=O)c1cccc(F)c1)c1ccc(-c2noc(C(F)(F)F)n2)cc1 (stereo in doubt) [Example 113, N-(((3R)-4-(3-fluorobenzoyl)morpholin-3-yl)methyl)-4-(5-(trifluoromethyl)-1,2,4-oxadiazol-3-yl)benzamide]",–,17%,97%,–
"O=C(NCC1COCCN1C(=O)c1ccc(F)cc1)c1ccc(-c2noc(C(F)(F)F)n2)cc1 (stereo not shown) [Example 5, N-((4-(4-fluorobenzoyl)morpholin-3-yl)methyl)-4-(5-(trifluoromethyl)-1,2,4-oxadiazol-3-yl)benzamide]",–,–,99%,21%
"O=C(NCC1Cc2ccccc2CN1C(=O)c1ccccc1)c1ccc(-c2noc(C(F)(F)F)n2)cc1 (stereo not shown) [Example 175, N-((2-benzoyl-1,2,3,4-tetrahydroisoquinolin-3-yl)methyl)-4-(5-(trifluoromethyl)-1,2,4-oxadiazol-3-yl)benzamide]",–,–,97%,18%
"O=C(NCC1CCCN1C(=O)c1ccccc1)c1ccc(-c2noc(C(F)(F)F)n2)cc1 (stereo not shown) [Example 162, N-((1-benzoylpyrrolidin-2-yl)methyl)-4-(5-(trifluoromethyl)-1,2,4-oxadiazol-3-yl)benzamide]",–,–,97%,16%
"O=C(NC[C@H]1COCCN1C(=O)N1CCC(c2cccnc2)C1)c1ccc(-c2noc(C(F)(F)F)n2)cc1 (stereo partly drawn) [Example 294, N-(((3S)-4-((3-(pyridin-3-yl)pyrrolidin-1-yl)carbonyl)morpholin-3-yl)methyl)-4-(5-(trifluoromethyl)-1,2,4-oxadiazol-3-yl)benzamide]",–,–,82%,5%
"Cn1nccc1CC(=O)N1CCOC[C@@H]1CNC(=O)c1ccc(-c2noc(C(F)(F)F)n2)cc1 [Example 297, N-(((3S)-4-((1-methyl-1H-pyrazol-5-yl)acetyl)morpholin-3-yl)methyl)-4-(5-(trifluoromethyl)-1,2,4-oxadiazol-3-yl)benzamide]",–,–,93%,5%
"O=C(NC[C@H]1COCCN1C(=O)Cn1cnccc1=O)c1ccc(-c2noc(C(F)(F)F)n2)cc1 [Example 83, N-(((3S)-4-((6-oxopyrimidin-1(6H)-yl)acetyl)morpholin-3-yl)methyl)-4-(5-(trifluoromethyl)-1,2,4-oxadiazol-3-yl)benzamide]",–,–,15%,4%
"C[C@H]1CCCN1C(=O)N1CCOC[C@@H]1CNC(=O)c1ccc(-c2noc(C(F)(F)F)n2)cc1 [Example 288, N-(((3S)-4-(((2S)-2-methylpyrrolidin-1-yl)carbonyl)morpholin-3-yl)methyl)-4-(5-(trifluoromethyl)-1,2,4-oxadiazol-3-yl)benzamide]",–,–,102%,3%
